For this assay, the system named is venous thrombosis. As to the kind of experiment: antithrombotic activity, venous thrombosis: venous stasis under hypercoagulation (Wessler), thrombus removed and weighed. Type of assay: in vivo, male Wistar rats. The settings on record: Rattus norvegicus, oral, suspension in PEG 400, thrombosis induced 4 hours after treatment. The method, then: A venous stasis under hypercoagulation is produced according to the technique described by WESSLER et al. (J. Applied Physiol. 1959, p. 943-946). As in the technique described by J. HAUPMAN et al. (Thrombosis and Haemostasis 43(2), 1980, p. 118), the hypercoagulant used is a solution of activated factor X (Xa) supplied by Flow Laboratories (71 Knat per 12.5 ml of isotonic solution).
The study is performed on unfasted male Wistar rats weighing 250 to 280 g, divided into groups of 10 animals each. The test products are administered orally as a suspension in PEG 400. A thrombosis is induced 4 hours after this treatment and the thrombus formed is removed and weighed.
The results obtained at a dose of 3 mg/kg, administered orally, have been collated in Table I. The results obtained with the known products of the afore-mentioned prior art have also been collated in this Table.
On to `CC(=O)O[C@@H]1[C@@H](OC(C)=O)[C@H](Sc2ccccc2S(C)(=O)=O)SC[C@H]1OC(C)=O` [Example 3, 2-(methylsulfonyl)phenyl 2,3,4-tri-O-acetyl-1,5-dithio-β-D-xylopyranoside], for which at 3 mg/kg the inhibition in vivo was 29%.
Consider `CS(=O)(=O)c1ccccc1S[C@@H]1SC[C@@H](O)[C@H](O)[C@H]1O` [Example 4, 2-(methylsulfonyl)phenyl 1.5-dithio-β-D-xylopyranoside], for which at 3 mg/kg the inhibition in vivo was 26%.
In turn, `CC(=O)O[C@@H]1[C@@H](OC(C)=O)[C@H](Sc2ccc(S(=O)(=O)c3ccc(F)cc3)cc2)SC[C@H]1OC(C)=O` [Example 13] gave an inhibition in vivo at 3 mg/kg of 58%.
`CC(=O)O[C@@H]1[C@@H](OC(C)=O)[C@H](OC(C)=O)CS[C@H]1Oc1ccc(S(=O)(=O)N(C)C)cc1` [Example 19, 4-(N,N-dimethylsulfonamidyl)phenyl 2,3,4-tri-O-acetyl-5-thio-β-D-xylpyranoside] yielded an inhibition in vivo at 3 mg/kg of 23%.
`CS(=O)(=O)c1ccc(S[C@@H]2SC[C@@H](O)[C@H](O)[C@H]2O)cc1` [Example 6, 4-(methylsulfonyl)phenyl 1,5-dithio-β-D-xylopyranoside] yielded an inhibition in vivo at 3 mg/kg of 61%.
Consider `O=S(=O)(c1ccc(S[C@@H]2SC[C@@H](O)[C@H](O)[C@H]2O)cc1)N1CCCCC1` [Example 22, 4-(N-(piperidin-1-yl)sulfonamidyl)phenyl 1,5-dithio-β-D-xylpyranoside], for which the inhibition in vivo at 3 mg/kg worked out at 47%.
Take `CN(C)S(=O)(=O)c1ccc(O[C@@H]2SC[C@@H](O)[C@H](O)[C@H]2O)cc1` [Example 20, 4-(N,N-dimethylsulfonamidyl)phenyl 5-thio-β-D-xylpyranoside]: the inhibition in vivo at 3 mg/kg came out at 58%.
With `CC(=O)O[C@@H]1[C@@H](OC(C)=O)[C@H](Sc2ccc(S(=O)(=O)N(C)C)cc2)SC[C@H]1OC(C)=O` [Example 17, 4-(N,N-dimethylsulfonamidyl)phenyl 2,3,4-tri-O-acetyl-1,5-dithio-β-D-xylpyranoside], 3 mg/kg produced 56% inhibition in vivo.
In turn, `CC(=O)O[C@@H]1[C@@H](OC(C)=O)[C@H](Sc2ccc(S(=O)(=O)c3ccccc3)cc2)SC[C@H]1OC(C)=O` [Example 1, 4-(phenylsulfonyl)phenyl 2,3,4-tri-O-acetyl-1,5-dithio-β-D-xylopyranoside] displayed an inhibition in vivo at 3 mg/kg of 20%.
As for `CS(=O)(=O)c1ccc(O[C@@H]2SC[C@@H](O)[C@H](O)[C@H]2O)cc1` [Example 8, 4-(methylsulfonyl)phenyl 5-thio-β-D-xylpyranoside], the inhibition in vivo at 3 mg/kg was found to be 30%.
With `CN(C)S(=O)(=O)c1ccc(S[C@@H]2SC[C@@H](O)[C@H](O)[C@H]2O)cc1` [Example 18, 4-(N,N-dimethylsulfonamidyl)phenyl 1.5-dithio-β-D-xylopyranoside], the inhibition in vivo at 3 mg/kg was 46%.
Take `CCS(=O)(=O)c1ccc(S[C@@H]2SC[C@@H](O)[C@H](O)[C@H]2O)cc1` [Example 10, 4-(ethylsulfonyl)phenyl 1,5dithio-β-D-xylopyranoside]: the inhibition in vivo at 3 mg/kg was 31%.
`CCS(=O)(=O)c1ccc(S[C@@H]2SC[C@@H](OC(C)=O)[C@H](OC(C)=O)[C@H]2OC(C)=O)cc1` [Example 9, 4-(ethylsulfonyl)phenyl 2,3,4-tri-O-acetyl-1,5-dithio-β-D-xylpyranoside]: the inhibition in vivo at 3 mg/kg was determined as 31%.
For the compound `CS(=O)(=O)c1cccc(S[C@@H]2SC[C@@H](O)[C@H](O)[C@H]2O)c1` [Example 12], the inhibition in vivo at 3 mg/kg is 43%.
The compound `N#Cc1ccc(S(=O)(=O)c2ccc(S[C@@H]3SC[C@@H](O)[C@H](O)[C@H]3O)cc2)cc1` [Example 16, 4-((4-cyanophenyl)sulfonyl)phenyl 1,5-dithio-β-D-xylopyranoside] gave an inhibition in vivo at 3 mg/kg of 66%.
Take `O=S(=O)(c1ccccc1)c1ccc(S[C@@H]2SC[C@@H](O)[C@H](O)[C@H]2O)cc1` [Example 2, 4-(phenylsulfonyl)phenyl 1,5-dithio-β-D-xylopyranoside]: the inhibition in vivo at 3 mg/kg came to 49%.
The result for `O=S(=O)(c1ccc(F)cc1)c1ccc(S[C@@H]2SC[C@@H](O)[C@H](O)[C@H]2O)cc1` [Example 14, 4-[(4-fluorophenyl)sulfonyl]phenyl 1,5-dithio-β-D-xylpyranoside] reads 61%.

Broadly, the inhibition in vivo is the drop in the measured response relative to a control, in per cent.

(Values after patent US5100913A, “Novel sulfonylphenyl-β-D-thioxylosides, their method of preparation and their use in therapeutics” (Fournier Industrie et Sante, priority 1990, dated 1992).)
